Source: PubChem BioAssay (NCI)
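Briefly, cells in 96-well plates were exposed to five compound concentrations for 48 h, and endpoints were estimated by linear interpolation. GI50 = concentration required for 50% inhibition of growth. Definition used: TGI = concentration required for complete inhibition of growth.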

Tests used:
Assay in all cases: NCI anticancer screen, dose series, 48 h
MDA-N = tested on: MDA-N
HS 578T breast = tested on: HS 578T breast
DU-145 prostate = tested on: DU-145 prostate
XF 498 CNS = tested on: XF 498 CNS
LXFL 529 NSCLC = tested on: LXFL 529 NSCLC
DLD-1 colon = tested on: DLD-1 colon
RXF-631 renal = tested on: RXF-631 renal

Question: Which results are given for O=P1(O)c2ccccc2CSCc2ccccc21?
Answer: TGI (MDA-N): > 100 µM; TGI (HS 578T breast): > 100 µM; TGI (DU-145 prostate): > 100 µM

Question: For CC1=CC=C2C(C)(C)CC[C@@H]3OC(=O)[C@H]1[C@]23C, which TGI (XF 498 CNS) is on record?
Answer: > 100 µM

Question: What about the TGI (LXFL 529 NSCLC) of the same molecule?
Answer: > 100 µM

Question: And the TGI (DLD-1 colon)?
Answer: > 100 µM

Question: What about the TGI (RXF-631 renal) of the same molecule?
Answer: > 100 µM

Question: Which results are given for NC(=S)N/N=C/c1cn(CCCl)c2ccccc12?
Answer: TGI (LXFL 529 NSCLC): > 100 µM; TGI (DLD-1 colon): > 100 µM

Question: COC(=O)c1oc([N+](=O)[O-])c(-c2ccccc2)c1-c1ccccc1 was tested. Which TGI (XF 498 CNS) did it give?
Answer: > 100 µM

Question: And the TGI (LXFL 529 NSCLC)?
Answer: > 100 µM

Question: And the TGI (DLD-1 colon)?
Answer: > 100 µM

Question: What about the TGI (RXF-631 renal) of the same molecule?
Answer: > 100 µM

Question: How did the TGI (MDA-N) turn out when CCCC(c1cc(C(C)(C)C)c(O)cc1C)c1cc(C(C)(C)C)c(O)cc1C was run?
Answer: 3.91 µM

Question: And the TGI (HS 578T breast)?
Answer: 9.79 µM

Question: What about the TGI (DU-145 prostate) of the same molecule?
Answer: 14.7 µM

Question: What does the source list for CC(C)[C@]12O[C@H]1[C@@H]1O[C@]13[C@]1(O[C@H]1C[C@H]1C4=C(CC[C@@]13C)C(=O)OC4)[C@@H]2OC(=O)OC(C)(C)C?
Answer: GI50 (HS 578T breast): 0.019 µM; TGI (HS 578T breast): 0.0713 µM; GI50 (DU-145 prostate): 0.0204 µM; TGI (DU-145 prostate): > 100 µM

Question: Which GI50 (HS 578T breast) does the source give for COc1ccc2c(c1)OC(N)=C(C#N)C2c1ccc(F)c(F)c1 (stereo not given) here?
Answer: 0.426 µM

Question: What about the TGI (HS 578T breast) of the same molecule?
Answer: > 46.3 µM

Question: What about the GI50 (DU-145 prostate) of the same molecule?
Answer: 0.522 µM

Question: What about the TGI (DU-145 prostate) of the same molecule?
Answer: > 46.5 µM

Question: What does the source list for CCCCN(CCCC)C(=O)C(=O)C(C(=O)C(=O)OC)c1nc2ccccc2o1 (stereo not given)?
Answer: TGI (XF 498 CNS): > 100 µM; TGI (LXFL 529 NSCLC): > 100 µM; TGI (DLD-1 colon): > 100 µM; TGI (RXF-631 renal): > 100 µM

Question: Which results are given for O=C1NC(=N[C@@H]2C[C@H]2c2ccccc2)S/C1=C\c1ccc2ncccc2c1?
Answer: GI50 (HS 578T breast): 1.25 µM; TGI (HS 578T breast): 11.6 µM; GI50 (DU-145 prostate): 1.94 µM; TGI (DU-145 prostate): 24.9 µM

Question: O=C(O)COc1ccc2c3c1C(=O)CCC3CO2 (stereo not given) was tested. Which TGI (XF 498 CNS) did it give?
Answer: > 100 µM

Question: What about the TGI (LXFL 529 NSCLC) of the same molecule?
Answer: > 100 µM

Question: What about the TGI (DLD-1 colon) of the same molecule?
Answer: > 100 µM

Question: For Cc1cc2c(=O)cc(-c3ccc(C(=O)O)cc3)oc2c(C(N)=O)c1C, which TGI (LXFL 529 NSCLC) is on record?
Answer: > 100 µM

Question: What about the TGI (DLD-1 colon) of the same molecule?
Answer: > 100 µM

Question: What about the TGI (RXF-631 renal) of the same molecule?
Answer: > 100 µM

Question: Which results are given for Cc1cc(C)c2c(=O)cc(-c3ccc(F)cc3)[nH]c2n1?
Answer: GI50 (MDA-N): 25 µM; TGI (MDA-N): 67.9 µM; TGI (HS 578T breast): > 100 µM; TGI (DU-145 prostate): > 100 µM

Question: O=[N+]([O-])c1cccc(C=NC23CC4CC(CC(C4)C2)C3)c1 was tested. Which TGI (XF 498 CNS) did it give?
Answer: > 100 µM

Question: And the TGI (LXFL 529 NSCLC)?
Answer: > 100 µM

Question: And the TGI (DLD-1 colon)?
Answer: > 100 µM

Question: What does the source list for OC1CCC(COC(c2ccccc2)(c2ccccc2)c2ccccc2)O1 (stereo not given)?
Answer: TGI (MDA-N): 34.5 µM; TGI (HS 578T breast): 35.7 µM; TGI (DU-145 prostate): 38.3 µM

Question: How did the TGI (LXFL 529 NSCLC) turn out when COC(=O)CCC(=O)C(CC(=O)OC)C(=O)CCC(=O)NCCc1ccccc1 (stereo not given) was run?
Answer: > 100 µM

Question: And the TGI (RXF-631 renal)?
Answer: > 100 µM

Question: How did the TGI (XF 498 CNS) turn out when CCOC(=O)c1sc(Nc2cc(Cl)ccc2Cl)nc1C was run?
Answer: > 100 µM

Question: And the TGI (LXFL 529 NSCLC)?
Answer: > 100 µM

Question: What about the TGI (DLD-1 colon) of the same molecule?
Answer: > 100 µM

Question: And the TGI (RXF-631 renal)?
Answer: > 100 µM

Question: Which results are given for CC(=O)Nc1ccc(S(=O)(=O)N/N=C/c2cc(I)cc([N+](=O)[O-])c2O)cc1?
Answer: TGI (XF 498 CNS): 74.6 µM; TGI (DLD-1 colon): > 100 µM; TGI (RXF-631 renal): > 100 µM

Question: With CNC(=O)N(CCCC(NC(C)=O)C(=O)NCc1ccccc1)Cc1ccccc1 (stereo not given) as the molecule, how does the TGI (XF 498 CNS) read?
Answer: > 100 µM

Question: What about the TGI (LXFL 529 NSCLC) of the same molecule?
Answer: > 100 µM

Question: And the TGI (DLD-1 colon)?
Answer: > 100 µM

Question: What does the source list for CCOC(=O)c1cc2c(OC)cc(OC)cc2oc1=O?
Answer: TGI (MDA-N): > 100 µM; TGI (HS 578T breast): > 100 µM; TGI (DU-145 prostate): > 100 µM

Question: For NS(=O)(=O)c1ccc(N=Nc2c(O)[nH]c3cccc(CCc4ccncc4)c23)cc1, which GI50 (HS 578T breast) is on record?
Answer: > 25 µM

Question: And the TGI (HS 578T breast)?
Answer: > 25 µM

Question: What about the GI50 (DU-145 prostate) of the same molecule?
Answer: > 25 µM

Question: And the TGI (DU-145 prostate)?
Answer: > 25 µM

Question: How did the TGI (MDA-N) turn out when COc1cc(C)cc(C(=O)OCc2ccccc2)c1C1=C(Cl)C(=O)C(Cl)=CC1=O was run?
Answer: > 10 µM

Question: What about the TGI (HS 578T breast) of the same molecule?
Answer: > 10 µM

Question: And the TGI (DU-145 prostate)?
Answer: > 10 µM

Question: What does the source list for c1ccc2c(CNCCCN3CCN(CCCNCc4cccc5ccccc45)CC3)cccc2c1?
Answer: TGI (XF 498 CNS): 3.17 µM; TGI (LXFL 529 NSCLC): 3.17 µM; TGI (DLD-1 colon): 3.69 µM; TGI (RXF-631 renal): 2.41 µM

Question: How did the GI50 (HS 578T breast) turn out when CCOC(=O)Nc1ccc2c3c(cccc13)-c1ccccc1-2 was run?
Answer: 3.91 µM

Question: What about the TGI (HS 578T breast) of the same molecule?
Answer: > 100 µM

Question: And the GI50 (DU-145 prostate)?
Answer: 7.56 µM

Question: And the TGI (DU-145 prostate)?
Answer: > 100 µM

Question: Which GI50 (HS 578T breast) does the source give for ClCCN(CCCl)c1ccc(OCc2ccccc2)cc1 here?
Answer: 15.7 µM

Question: What about the TGI (HS 578T breast) of the same molecule?
Answer: 69.4 µM

Question: And the GI50 (DU-145 prostate)?
Answer: 3.16 µM

Question: And the TGI (DU-145 prostate)?
Answer: 27.6 µM

Question: For COc1ccc(C(=O)O[C@@H]2CCN3CC[C@H](C)[C@H]23)cc1, which TGI (MDA-N) is on record?
Answer: > 100 µM

Question: And the TGI (HS 578T breast)?
Answer: > 100 µM

Question: What about the TGI (DU-145 prostate) of the same molecule?
Answer: > 100 µM
